This is an account of results in ChEMBL document CHEMBL4418484, “Inhibitors of nkx2.5 for vascular remodelling” (2015).

The species named for data set [1] is Homo sapiens. As to the kind of experiment: Inhibition of casein kinase-2/Nkx2-5 in human pulmonary smooth muscle cells assessed as down-regulation of CCN2 protein expression at 1 nM by Western blot analysis. (In general: A western blot detects proteins with antibodies after separation by electrophoresis.)
Data set [2] is filed under the species Homo sapiens. As to the kind of experiment: Inhibition of casein kinase-2/Nkx2-5 in human pulmonary smooth muscle cells assessed as down-regulation of COL1 protein expression at 1 nM by Western blot analysis.
Data set [3] is filed under the species Homo sapiens. As to the kind of experiment: Inhibition of casein kinase-2/Nkx2-5 in human pulmonary smooth muscle cells assessed as down-regulation of COL1 protein expression at 10 nM by Western blot analysis.
For data set [4], the species on record is Homo sapiens. As to the kind of experiment: Inhibition of cell migration of human pulmonary smooth muscle cells by standard scratch assay. The data set is classed as functional.
Data set [5] has as its system Mus musculus. As to the kind of experiment: Effect on systemic pressure in […] mouse hypoxia/Sugen pre-clinical model of pulmonary hypertension at 80 mg/kg dosed daily for 20 days starting 8 days post experimental initiation. The class given is functional, organism-based.
Data set [6] is filed under the species Homo sapiens. As to the kind of experiment: Inhibition of casein kinase-2/Nkx2-5 in human pulmonary smooth muscle cells assessed as down-regulation of CCN2 protein expression at 10 nM by Western blot analysis.
Data set [7] deals with Mus musculus. As to the kind of experiment: Inhibition of right ventricular systolic pressure increase in […] mouse hypoxia/Sugen pre-clinical model of pulmonary hypertension at 80 mg/kg dosed daily for 20 days starting 8 days post experimental initiation. The data set is classed as functional, organism-based.
Data set [8] is filed under the species Homo sapiens. As to the kind of experiment: Inhibition of casein kinase-2/Nkx2-5 in human pulmonary smooth muscle cells assessed as up-regulation of MYH11 protein expression at 10 nM by Western blot analysis.
For data set [9], the species on record is Homo sapiens. As to the kind of experiment: Inhibition of de-differentiation of human pulmonary smooth muscle cells assessed as reduction in contractile to synthetic forms change. The data set is classed as functional.
Data set [10] is filed under the species Homo sapiens. As to the kind of experiment: Inhibition of casein kinase-2/Nkx2-5 in human pulmonary smooth muscle cells assessed as up-regulation of ACTA2 protein expression at 10 nM by Western blot analysis.
For data set [11], the species on record is Homo sapiens. As to the kind of experiment: Inhibition of cell proliferation of human pulmonary smooth muscle cells incubated up to 120 hrs. The class given is functional.
Data set [12] has as its system Mus musculus. As to the kind of experiment: Effect on systemic pressure in […] mouse hypoxia/Sugen pre-clinical model of pulmonary hypertension at 80 mg/kg dosed daily for 20 days starting immediately post experimental initiation. The class given is ADME, organism-based. The settings on record: in vivo, 480 h.
The subject of data set [13] is Mus musculus. As to the kind of experiment: Inhibition of right ventricular systolic pressure increase in […] mouse hypoxia/Sugen pre-clinical model of pulmonary hypertension at 80 mg/kg dosed daily for 20 days starting immediately post experimental initiation. The class given is functional, organism-based.
The species entered for data set [14] is Homo sapiens. As to the kind of experiment: Inhibition of casein kinase-2/Nkx2-5 in human pulmonary smooth muscle cells assessed as up-regulation of ACTA2 protein expression at 1 nM by Western blot analysis.
The species entered for data set [15] is Homo sapiens. As to the kind of experiment: Inhibition of casein kinase-2/Nkx2-5 in human pulmonary smooth muscle cells assessed as up-regulation of MYH11 protein expression at 1 nM by Western blot analysis.
Data set [16] is described as follows: Effect on Nkx2-5 cytosolic expression in human pulmonary smooth muscle cells. The data set is classed as ADME. The settings on record: cytosol.
Data set [17] is filed under the species Homo sapiens. As to the kind of experiment: Inhibition of casein kinase-2 in human pulmonary smooth muscle cells assessed as reduction in Nkx2-5 nuclear translocation.

Active and inactive are the calls of the source. The rule behind the calls is not given here.

Take `O=C(O)c1ccc2c(c1)nc(Nc1cccc(Cl)c1)c1ccncc12` [SILMITASERTIB]: the inhibition result in the data set filed under Homo sapiens [1], in the data set listed under Homo sapiens [2], in the data set listed under Homo sapiens [3], in the data set listed under Homo sapiens [6], in the data set with Mus musculus [7] and in the data set listed under Homo sapiens [8] was “Active” throughout. The inhibition entry in the data set listed under Homo sapiens [10], with Mus musculus [13], in the data set listed under Homo sapiens [14] and in the data set listed under Homo sapiens [15] was “Active” each time. Besides, the inhibition entry in the data set listed under Homo sapiens [4], in the data set filed under Homo sapiens [9] and in the data set listed under Homo sapiens [11] was “Dose-dependent effect” throughout. The outcome in the data set with Mus musculus [5] was inactive. In addition, the Activity entry in the data set with Mus musculus [12] is listed as “Non-Toxic”.
Turning to `COc1cc(Nc2ncc3ccn(-c4cccc(CCC#N)c4)c3n2)cc(OC)c1OC`, the Activity entry in data set [16] was “Non-Toxic”. In addition, the inhibition result in the data set listed under Homo sapiens [17] was “Active”.
